ChEMBL document CHEMBL1137949, “Mechanism of action of pyridazine analogues on protein tyrosine phosphatase 1B (PTP1B)” (Bioorg Med Chem Lett, 2004)
Blank lines part the entries; values can stand above or below the compound they belong to. Calls of active or inactive are those of the source. The rule behind the calls is not given here.

Experiments:
[1] = Enzymatic activity of protein tyrosine phosphatase 1B in the presence (10 uM) was measured using para-nitrophenylphosphate (pNPP) as the substrate; active
[2] = Inhibitory activity against Protein-tyrosine phosphatase activity; active
[3] = Enzymatic activity of protein tyrosine phosphatase 1B in the presence (10 uM) was measured using para-nitrophenylphosphate (pNPP) as the substrate in the presence of TCEP (1 mM) and catalase (25 ug/mL); activity not restored
[4] = Enzymatic activity of protein tyrosine phosphatase 1B in the presence (10 uM) was measured using para-nitrophenylphosphate (pNPP) as the substrate in the presence of TCEP (1 mM); inhibited
[5] = Enzymatic activity of protein tyrosine phosphatase 1B in the presence (10 uM) was measured using para-nitrophenylphosphate (pNPP) as the substrate in the presence of […] (1 mM); inhibited
[6] = Enzymatic activity of protein tyrosine phosphatase 1B in the presence (10 uM) was measured using para-nitrophenylphosphate (pNPP) as the substrate in the presence of […] (1 mM) and catalase (25 ug/mL); abolished the inhibitory effect

Structure (SMILES): O=C(O)CCP(CCC(=O)O)CCC(=O)O
Activity [1]: Active

Activity [2]: Active
Structure (SMILES): OO

Structure (SMILES): CC1(C)C=C2C(=NN(c3ccccc3)C(N)=C2C#N)CO1
Activity [1]: Active

Activity [1]: Active
Structure (SMILES): OC(CS)C(O)CS (centres undefined)

Structure (SMILES): CC1(C)C=C2C(=NN(c3ccccc3)C(N)=C2C#N)CO1.O=C(O)CCP(CCC(=O)O)CCC(=O)O
Activity [3]: activity not restored | Activity [4]: activity not restored

Activity [2]: Active
Structure (SMILES): O=C1CC(=O)N(c2ccccc2)O1

Structure (SMILES): CC1(C)C=C2C(=NN(c3ccccc3)C(N)=C2C#N)CO1.OC(CS)C(O)CS
Activity [5]: abolished the inhibitory effect | Activity [6]: abolished the inhibitory effect
